Assay results from US20060199206A1, “Method for identifying skin care composition-resistant skin-binding peptides” (priority 2005, published 2006).

What was measured:
[1] = stated as known; cited from earlier work
[2] = Phage ELISA for skin binding affinity after body wash treatment (Example 15); design: species or system pig; conditions: mean of at least three replicates; for Body Wash A450 ± SEM: 200 μL Johnson's Head-to-Toe Baby Wash for 30 min after phage binding; for Buffer Wash A450 ± SEM: procedure of Example 14
Protocol: (§1) Phage-peptide clones identified in Examples 11-13 were amplified by infecting fresh host cells (E. coli ER2338). The pigskin-bottom 96-well apparatus system described in Examples 11-13 was used for the ELISA procedure. For each clone to be tested, the pigskin well was incubated for 1 h at room temperature with 400 μL of blocking buffer, consisting of 2% non-fat dry milk (Schleicher & Schuell, Inc.) in TBS. The blocking buffer was removed by inverting the systems and blotting them dry with paper towels. The systems were rinsed 6 times with wash buffer consisting of TBST-0.05%. The wells were filled with 100 μL of TBST-0.5% containing 1 mg/mL of BSA and 1×10^11 pfu of phage. The samples were incubated at 37° C. for 15 min with slow shaking. The non-binding phage was removed by washing the wells 10 to 20 times with TBST-0.5%. Then, 100 μL of horseradish peroxidase/anti-M13 antibody conjugate (Amersham USA, Piscataway, N.J.), diluted 1:500 in the blocking buffer, was added to each well and incubated for 1 h at room temperature. The conjugate solution was removed and the wells were washed 6 times with TBST-0.05%. TMB substrate (200 μL), obtained from Pierce Biotechnology (Rockford, Ill.) was added to each well and the color was allowed to develop for between 5 to 30 min, typically for 10 min, at room temperature. Then, stop solution (200 μL of 2 M H2SO4) was added to each well and the solution was transferred to a 96-well plate and the absorbance at 450 nm (A450) was measured using a microplate spectrophotometer (Molecular Devices, Sunnyvale, Calif.). The resulting absorbance values, reported as the mean of at least three replicates, and the standard error of the mean (SEM) are given in Table 2.
The ELISA procedure described in Example 14 was used with the following modification. After removal of the non-binding phage peptide solution from the wells, 200 μL of Johnson's Head-to-Toe Baby Wash was added to the wells and was incubated for 30 min. The washes and color development steps described in Example 14 were followed. For the buffer wash samples, the same procedure described in Example 14 was used. […] The resulting absorbance values, reported as the mean of at least three replicates, and the standard error of the mean are given in Table 3.

[3] = Phage ELISA for skin binding affinity (Example 14); design: species or system pig; conditions: 1×10^11 pfu of phage, 37° C. 15 min, TBST-0.5% washes; anti-M13 HRP conjugate; mean of at least three replicates
Protocol: as §1

In the case of “IB5: hair-binding phage peptide (Huang et al.) used as control, known low binding affinity for skin (TPPELLHGDPRS; Hair-binding peptide)”, the “binding affinity for skin” value [1] is listed as “low binding affinity for skin”, the “Body Wash A450 ± SEM” value [2] is listed as 0.453 ± 0.035 and the “Buffer Wash A450 ± SEM” value [2] is listed as 0.202 ± 0.010.

For “GSSTVGRPSLYE (Body wash-resistant skin-binding peptide) [Skin-12mer-6]”, the “A450 ± SEM” value [3] was 0.677 ± 0.104.

With “TMGFTAPRFPHY (Body wash-resistant skin-binding peptide) [Skin-12mer-1]” the “A450 ± SEM” value [3] was 0.506 ± 0.097.

For “D21: hair-binding phage peptide used as control in Example 15, known low binding affinity for skin (RTNAADHPAAVT; Hair-binding sequence) [Clone D21, reference compound]”, the “binding affinity for skin” value [1] is listed as “low binding affinity for skin”, the “Body Wash A450 ± SEM” value [2] is listed as 0.549 ± 0.053 and the “Buffer Wash A450 ± SEM” value [2] is listed as 0.297 ± 0.004.

With “ASCPSASHADPCAH (Body wash-resistant skin-binding peptide) [Skin-cys-2]” the “A450 ± SEM” value [3] was 1.184 ± 0.044.

With “DACSGNGHPNNCDR (Body wash-resistant skin-binding peptide) [Skin-cys-4]” the “A450 ± SEM” value [3] was 0.852 ± 0.033.

With “SGCHLVYDNGFCDH (Body wash-resistant skin-binding peptide) [Skin-cys-1]” the “A450 ± SEM” value [3] was 1.385 ± 0.046, the “Body Wash A450 ± SEM” value [2] was 1.444 ± 0.293 and the “Buffer Wash A450 ± SEM” value [2] was 1.182 ± 0.070.

In the case of “SVSVGMKPSPRP (Body wash-resistant skin-binding peptide) [Skin-12mer-2]”, the “A450 ± SEM” value [3] is reported as 0.818 ± 0.108.

With “SPLTVPYERKLL (Body wash-resistant skin-binding peptide) [Skin-12mer-8]” the “A450 ± SEM” value [3] was 0.433 ± 0.05.

With “DWCDTIIPGRTCHG (Body wash-resistant skin-binding peptide) [Skin-cys-6]” the “A450 ± SEM” value [3] was 1.657 ± 0.047.

In the case of “SDTISRLHVSMT (Body wash-resistant skin-binding peptide) [Skin-12mer-7]”, the “A450 ± SEM” value [3] is reported as 1.134 ± 0.093.

For “SPYPSWSTPAGR (Body wash-resistant skin-binding peptide) [Skin-12mer-9]”, the “A450 ± SEM” value [3] was 1.146 ± 0.131, the “Body Wash A450 ± SEM” value [2] was 2.265 ± 0.132 and the “Buffer Wash A450 ± SEM” value [2] was 1.298 ± 0.11.

For “NLCDSARDSPRCKV (Body wash-resistant skin-binding peptide) [Skin-cys-3]”, the “A450 ± SEM” value [3] was 0.927 ± 0.044.

For “NHSNWKTAADFL (Body wash-resistant skin-binding peptide) [Skin-12mer-4]”, the “A450 ± SEM” value [3] was 0.874 ± 0.039.

For “VQPITNTRYEGG (Body wash-resistant skin-binding peptide) [Skin-12mer-10]”, the “A450 ± SEM” value [3] was 0.418 ± 0.036.

In the case of “QLSYHAYPQANHHAP (Body wash-resistant skin-binding peptide) [Skin-15mer-1]”, the “A450 ± SEM” value [3] is reported as 1.264 ± 0.166, the “Body Wash A450 ± SEM” value [2] is reported as 1.447 ± 0.178 and the “Buffer Wash A450 ± SEM” value [2] is reported as 1.031 ± 0.045.

For “NQAASITKRVPY (Body wash-resistant skin-binding peptide) [Skin-12mer-5]”, the “A450 ± SEM” value [3] was 0.391 ± 0.036.

For “WPMHPEKGSRWS (Body wash-resistant skin-binding peptide) [Skin-12mer-11]”, the “A450 ± SEM” value [3] was 0.81 ± 0.038.
